Two substances from US20230405078A1, “DETECTION AND TREATMENT OF INTESTINAL FIBROSIS” (THE REGENTS OF THE UNIVERSITY OF CALIFORNIA, priority 2020, published 2023) can be followed below.

In assay [1] the test system is primary stricturing CD patient-derived colonic fibroblasts. Nature of the assay: Fibrogenesis in CDSE-treated primary stricturing CD patient-derived colonic fibroblasts. It is filed as cell-based, human. How it is done: Stricturing CD patient-derived primary colonic fibroblasts (CD-HIFs) were obtained from Cleveland Clinic via material transfer agreement (MTA2020-00000154) and under
Cleveland Clinic IRB directives (IRB #17-1167). Primary non-IBD patient-derived colonic fibroblasts (H6231) were purchased from Cell Biologics. All primary colonic fibroblasts were cultured in fibroblast medium (M2267, Cell Biologics). Human colonic CCD-18Co fibroblasts (ATCC) were cultured in minimal essential medium Eagle's medium (MEM) containing 10% fetal bovine serum and 1% penicillin-streptomycin 6, 20. All fibroblasts were grown to 80% confluence and then switched to serum-free media overnight for experiments.
For activation of protease-activated receptors (PARs), fibroblasts were pretreated with 0.8% DMSO, 10 μM PAR1 agonist TRAP-6 (HY-P0078, MCE), 10 μM PAR2 agonist SLIGKV-NH2 (Protease-Activated Receptor-2, amide, HY-P0283, MCE), or 0.4 μg/ml PAR2-activating protease recombinant cathepsin S (1183-CY-010, R&D Systems) for 30 minutes. For miR205-5p activation, fibroblasts were transfected with (30 picomoles/well) either control (YM00479902) or miR205-5p miRCURY LNA mimic (YM00472340) from Qiagen via Lipofectamine 3000 transfection reagent (L3000001, ThermoFisher) in Opti-MEM (#31985062, ThermoFisher) overnight. […]

The next assay relates to ERK1/2 phosphorylation. Briefly: Phospho-ERK1/2 ELISA in CCD-18Co fibroblasts. Format: cell-based, human. As to the method:
FIG. 27. Elafin inhibited ERK1/2 phosphorylation in intestinal fibroblasts via PAR2. (A) Serum starved CCD-18Co and primary stricturing CD patient-derived colonic fibroblasts were transiently transfected with either control siRNA or ZEB1 siRNA overnight, followed by treatment with 10 ng/ml TGF-β1 or 100 μg/ml stricturing CD patient-derived serum exosomes (CDSE) for 24 hours. (B) CCD-18Co fibroblasts were treated with DMSO, PAR1 inhibitor (SCH79797), or PAR2 inhibitor (GB88) for 2 hours. GB88 inhibited ERK1/2 phosphorylation. (C) CCD-18Co fibroblasts were pretreated with DMSO, PAR1 agonist, or PAR2 agonists for 30 minutes, followed by TGF-β1 10 ng/ml. Two hours later, elafin (1 μg/ml) and incubated for 2 hours. Elafin inhibited ERK1/2 phosphorylation, which was reversed by PAR2 agonist. […] Phospho-ERK1/2, ProCOL1A1, COL1A2, and ZEB1 protein were determined by ELISA. miR205-5p expression was determined by real-time RT-PCR. […]
FIG. 28. […] (D) Quantification of cathepsin S signals (B7-8) and control signals (A1-2 and E1-2) on the protease array using Bio-Rad Image Lab Software. […] Phospho-ERK1/2 was determined by ELISA. […] ProCOL1A1 and COL1A2 were determined by ELISA. […]

Where no end group is shown, it is not given here.

Regarding “Elafin: small (6 kDa) human elastase-specific protease inhibitor and antimicrobial peptide; active form SEQ ID NO: 2 (AQEPVKGPVSTKPGSCPIILIRCAMLNPPNRCLKDTDCPGIKKCCEGSCGMACFVPQ; listed as Homo sapiens)”, the ProCOL1A1 protein expression entry in assay [1] (CDSE-treated, Elafin 1 μg/ml) is on record as “inhibited”. Besides, the ERK1/2 phosphorylation entry in the assay with ERK1/2 phosphorylation (CCD-18Co fibroblasts) is “inhibited”.

Consider “SLIGKV-NH2 [PAR2 agonist, reference compound]”, for which the “effect on elafin-mediated inhibition of collagen expression” value in assay [1] (CDSE-conditioned primary human colonic fibroblasts) is recorded as “reversed”. Besides, in the assay with ERK1/2 phosphorylation (elafin 1 μg/ml, 2 hours), the “effect on elafin-mediated inhibition of ERK1/2 phosphorylation” value is reported as “reversed”.
